Measured values taken from US20120252829A1, “TIVOZANIB AND CAPECITABINE COMBINATION THERAPY” (priority 2011, published 2012).
Read-outs that look alike come from different tables or passages of the source.

What was measured:
[1] = tested on: Her2-driven breast tumor (BH) model; test: tumor growth in Her2-driven breast tumor (BH) mouse model; assay type: in vivo; conditions: tivozanib 5 mg/kg daily, capecitabine 300 mg/kg daily 2 weeks on, 1 week off, oral, more than 4 weeks; FIG. 1
Description: (§1) The Her2-driven breast tumor (BH) model used herein has the following genotype: MMTVrTTA, tetO HER2, INK4A(−/−), luciferase reporter.
When tumors reached approximately 200 mm^3, the mice were randomized into 4 groups of 10 mice each. One group received vehicle control. Each of the other 3 groups were treated with one of the two agents either administered alone or in combination. Both agents were administered orally.
Capecitabine was dosed at 300 mg/kg daily for two weeks followed by a one week break (2 weeks on, 1 week off) for more than 4 weeks.

[2] = oral administration of capecitabine; human xenograft tumors in mice; cited from earlier work
[3] = cited from earlier work
[4] = tested on: Her2-driven breast tumor (BH) model; test: tumor cell proliferation by Ki67 immunohistochemistry; assay type: in vivo, mouse
Description: as §1
To determine the mechanism of action of the combination therapy, capecitabine was administered alone and in combination with tivozanib, over two dosage cycles (FIG. 2A). Capecitabine was dosed at 300 mg/kg daily for two weeks, followed by a seven day break, and then an additional two weeks of capecitabine at 300 mg/kg daily. Tivozanib was dosed at 5 mg/kg daily for 5 weeks.

[5] = cited from earlier work; remark: listed apart in the source
tumor blood vessels = test: inhibition of angiogenesis in tumors; assay type: in vivo, mouse; conditions: tivozanib 5 mg/kg daily 5 weeks, capecitabine 300 mg/kg daily two weeks, seven day break, FIG. 4
Description: An experiment was designed to evaluate the effect of the combination therapy on angiogenesis (FIG. 4). Tivozanib was dosed at 5 mg/kg daily for 5 weeks. Capecitabine was dosed at 300 mg/kg daily for two weeks, followed by a seven day break, and then an additional two weeks of capecitabine at 300 mg/kg daily.

[6] = tested on: thymidine phosphorylase (TP); conditions: BH216 tumors; one dose at or about maximum tolerated dosage; tumors collected after 6 hours (also 24 hours for B20-4.1)
Description: Each of the VEGF inhibitors were administered at or about their respective maximum tolerated dosages.

[7] = tested on: thymidine phosphorylase (TP); test: TP expression in murine breast tumors after tivozanib, qRT-PCR
Description: Murine breast tumors (BH216, BH225, BH229 and BH281) were introduced subcutaneously into nude mice. For each tumor type, when tumors reached approximately 250 mm^3, the mice were randomized into five groups, with three mice in each group. One group received vehicle (0.5% methyl-cellulose) and the remaining groups each received one dose of 5 mg/kg tivozanib. The mice were sacrificed and tumors collected at 0.5, 2, 6 and 16 hours post-dose. RNA was extracted from the tumors and TP expression was analyzed with qRT-PCR.

tumor = conditions: preclinical models; cited from earlier work
[8] = 272-patient Phase 2 clinical trial; cited from earlier work
[9] = tested on: thymidine phosphorylase (TP); test: TP induction in BH216-derived primary culture, qRT-PCR; assay type: cell-based, mouse; conditions: cultured BH216 tumor cells; 0.01-1000 nM, 3 hours
VEGF receptor 3 = VEGF receptor 3 (Homo sapiens, UniProt P35916); conditions: cited from earlier work
Sequence of VEGF receptor 3 (P35916 25-1363): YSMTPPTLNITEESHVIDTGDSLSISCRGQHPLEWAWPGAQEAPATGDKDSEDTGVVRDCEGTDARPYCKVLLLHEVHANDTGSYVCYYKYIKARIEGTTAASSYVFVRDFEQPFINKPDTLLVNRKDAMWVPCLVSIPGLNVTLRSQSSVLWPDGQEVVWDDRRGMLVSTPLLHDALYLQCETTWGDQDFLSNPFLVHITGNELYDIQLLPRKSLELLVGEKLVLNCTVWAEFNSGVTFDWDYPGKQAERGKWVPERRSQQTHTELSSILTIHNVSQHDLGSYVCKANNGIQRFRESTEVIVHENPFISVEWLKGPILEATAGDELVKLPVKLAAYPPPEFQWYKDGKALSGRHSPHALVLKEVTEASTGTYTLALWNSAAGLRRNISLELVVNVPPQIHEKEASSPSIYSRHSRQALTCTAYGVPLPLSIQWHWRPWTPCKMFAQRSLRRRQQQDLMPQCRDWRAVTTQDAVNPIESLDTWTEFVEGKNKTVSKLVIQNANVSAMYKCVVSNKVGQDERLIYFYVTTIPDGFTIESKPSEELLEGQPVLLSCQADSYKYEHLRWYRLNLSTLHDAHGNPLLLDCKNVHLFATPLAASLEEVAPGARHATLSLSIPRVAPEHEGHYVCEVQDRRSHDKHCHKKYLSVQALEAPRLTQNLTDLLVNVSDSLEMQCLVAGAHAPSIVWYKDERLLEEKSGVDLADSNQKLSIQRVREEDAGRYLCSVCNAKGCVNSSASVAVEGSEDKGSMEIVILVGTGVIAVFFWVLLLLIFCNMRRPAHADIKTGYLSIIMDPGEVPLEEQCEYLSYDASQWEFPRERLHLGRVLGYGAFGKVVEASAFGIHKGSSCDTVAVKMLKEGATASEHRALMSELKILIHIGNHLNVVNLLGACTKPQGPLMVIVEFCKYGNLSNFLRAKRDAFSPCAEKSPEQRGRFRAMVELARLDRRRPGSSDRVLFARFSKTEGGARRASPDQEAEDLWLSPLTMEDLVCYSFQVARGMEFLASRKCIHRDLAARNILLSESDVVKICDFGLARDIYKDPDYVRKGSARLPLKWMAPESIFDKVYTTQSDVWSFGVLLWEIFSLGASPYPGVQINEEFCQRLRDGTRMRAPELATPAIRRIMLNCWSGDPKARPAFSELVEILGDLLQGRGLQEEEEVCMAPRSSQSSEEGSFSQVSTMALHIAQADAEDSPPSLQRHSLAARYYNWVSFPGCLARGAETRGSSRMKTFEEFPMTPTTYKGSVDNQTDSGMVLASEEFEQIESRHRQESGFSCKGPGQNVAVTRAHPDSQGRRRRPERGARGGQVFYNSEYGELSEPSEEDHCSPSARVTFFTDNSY

Q: With CCCCCOC(=O)Nc1nc(=O)n([C@@H]2O[C@H](C)[C@@H](O)[C@H]2O)cc1F [capecitabine, 5′-deoxy-5-fluoro-N-[(pentyloxy)carbonyl]-cytidine] as the compound, how does the tumor growth [1] read?
A: The tumor growth was “only moderate reduction in tumor growth”.

Q: What about the “5-FU AUC in tumors versus plasma” value [2] of the same compound?
A: The value was 100-200 fold.

Q: And the elimination half-life ([3]; human body)?
A: Its elimination half-life is “approximately ¾”.

Q: What about the tumor cell proliferation ([4]; capecitabine 300 mg/kg daily, first two weeks) of the same compound?
A: Its tumor cell proliferation is “reduced tumor cell proliferation”.

Q: What about the “tumor cell proliferation between capecitabine cycles” value ([4]; during break periods) of the same compound?
A: The value was “tumor cell proliferation rebound”.

Q: And the side effects ([5]; capecitabine, can be severe)?
A: The side effects was “hand-and-foot syndrome (pain, swelling or redness of your hands or feet), diarrhea, nausea, vomiting, dehydration, sores in the mouth and throat, stomach area pain, tiredness or weakness, fever, and joint and muscle pain”.

Q: And the angiogenesis (tumor blood vessels)?
A: The angiogenesis was “no change in the angiogenesis profile”.

Q: Which results are given for O=c1[nH]cc(F)c(=O)[nH]1 [fluorouracil, 5-fluoro-2,4-(1H,3H)-pyrimidinedione]?
A: area under the curve (AUC) of fluorouracil, higher at day 14 than day 1 ([3]; after capecitabine, day 14 vs day 1): 35%; half-life of primary metabolite of capecitabine ([3]; relative to parent compound): same approximate half-life of the parent compound

Q: What does the source list for COc1cc2nccc(Oc3ccc(NC(=O)Nc4cc(C)on4)c(Cl)c3)c2cc1OC [tivozanib, N-{2-chloro-4-[(6,7-dimethoxy-4-quinolyl)oxy]-phenyl}-N′-(5-methyl-3-isoxazolyl)urea]?
A: tumor growth [1]: only moderate reduction in tumor growth; TP induction [6]: significant TP induction; up-regulation of TP ([7]; BH216 tumors, 6 hours after tivozanib 5 mg/kg): approximately 8 fold; TP expression ([7]; BH216 tumors, 16 hours post-dose, tivozanib 5 mg/kg): significant elevation in TP expression; TP up-regulation ([7]; BH229 tumor, tivozanib 5 mg/kg): no TP up-regulation; TP up-regulation ([7]; BH281 tumor, tivozanib 5 mg/kg): no TP up-regulation; antitumor activity (tumor): exhibits antitumor activity; clinical trial results [8]: positive results; time for serum levels to reach steady state ([3]; chronic dosing): 2-3 weeks; half-life ([3]; human body): 91.2 to 113 h; most common side effects ([5]; Phase 1, Phase 2 and Phase 3 clinical trials): hypertension and dysphonia; angiogenesis (tumor blood vessels): only a reduction in vessel size but not microvessel density; TP induction [9]: TP induction was observed; inhibitory activity (VEGF receptor 3): picomolar
